Reference: ChEMBL document CHEMBL4651402, “Screening of ~5500 FDA-approved drugs and clinical candidates for anti-SARS-CoV-2 activity” (2021)

Tested on: SARS-CoV-2
Assay: microbe, parasite or virus in culture
Conditions: Severe acute respiratory syndrome coronavirus 2, Vero C1008, 48 h

| SMILES | IC50 | IC50 (read-out: pIC50 (converted)) |
| --- | --- | --- |
| C#C[C@]1(O)CC[C@H]2[C@@H]3CCc4cc(O)ccc4[C@H]3CC[C@@]21C [ETHINYL ESTRADIOL] | > 20 µM | > 20 µM |
| CN1C(=O)[C@@H](NC(=O)c2n[nH]c(Cc3ccccc3)n2)COc2ccccc21 [GSK2982772] | > 20 µM | > 20 µM |
| c1ccc2nc(N3CCNCC3)ccc2c1 [QUIPAZINE] | > 20 µM | > 20 µM |
| CC(=O)c1ccc2c(c1)[C@@H]1C=CC[C@@H]1[C@H](c1cc3c(cc1Br)OCO3)N2 | > 20 µM | > 20 µM |
| O[C@@H](c1cc(C(F)(F)F)nc2c(C(F)(F)F)cccc12)[C@H]1CCCCN1 [(S,R)-MEFLOQUINE] | > 20 µM | > 20 µM |
| Cc1cccc(C)c1CNc1cc(C(=O)NCCO)cn2c(C)c(C)nc12 [LINAPRAZAN] | > 20 µM | > 20 µM |
| CC1=C(C)C(=O)C(C(CCCCCC(=O)O)c2ccccc2)=C(C)C1=O (stereo not given) [SERATRODAST] | > 20 µM | > 20 µM |
| c1ccc(C2(c3ccccc3)OCC(C3CCCCN3)O2)cc1 (stereo not given) [DIOXADROL] | > 20 µM | > 20 µM |
| CCCN1CCC[C@@H](c2cccc(O)c2)C1 [PRECLAMOL] | > 20 µM | > 20 µM |
| COC(=O)c1c(C)cc(OC(=O)c2c(C)cc(O)c(C=O)c2O)c(C)c1O [ATRANORIN] | > 20 µM | > 20 µM |
| Clc1ccc(C(Cn2ccnc2)OCc2c(Cl)cccc2Cl)c(Cl)c1 (stereo not given) [ISOCONAZOLE] | > 20 µM | > 20 µM |
| COc1ccc(C(=O)Nc2ccccc2CCC2CCCCN2C)cc1 (stereo not given) [ENCAINIDE] | > 20 µM | > 20 µM |
| CC1CC2Oc3ccc(Cl)cc3C(=O)N2O1 (stereo not given) [MESECLAZONE] | > 20 µM | > 20 µM |
| CC(C)c1c(CN(C)C(C)Cc2ccccc2)n(C)n(-c2ccccc2)c1=O (stereo not given) [FAMPROFAZONE] | > 20 µM | > 20 µM |
| CC(O)(C(=O)Nc1ccc(C(=O)c2ccccc2)cc1)C(F)(F)F (stereo not given) | > 20 µM | > 20 µM |
| Cc1ccc(-n2nccn2)c(C(=O)N2CCN(c3nc4cc(Cl)ccc4o3)CC[C@H]2C)c1 [SUVOREXANT] | > 20 µM | > 20 µM |
| CCCc1c2nc(C(=O)O)cc(NC)c2cc2c(=O)cc(C(=O)O)oc12 [MINOCROMIL] | > 20 µM | > 20 µM |
| Cc1nnc2n1-c1ccc(Cl)cc1C(c1ccccc1Cl)=NC2 [TRIAZOLAM] | > 20 µM | > 20 µM |

| SMILES | IC50 | IC50 (read-out: pIC50 (converted)) |
| --- | --- | --- |
| CCOC(=O)C1=C[C@]2(CC)CCCN3CCc4c(n1c1ccccc41)[C@@H]32 [VINPOCETINE] | > 20 µM | > 20 µM |
| CN1C(=O)CCS(=O)(=O)C1c1ccc(Cl)cc1 (stereo not given) [CHLORMEZANONE] | > 20 µM | > 20 µM |
| O=C(O)CCCCCCC[C@@H](O)[C@@H](O)CCCCCCO | > 20 µM | > 20 µM |
| C[N+]1(CCC(C(N)=O)(c2ccccc2)c2ccccc2)CCCCC1 | > 20 µM | > 20 µM |
| CCn1cc(C(=O)O)c(=O)c2cc(F)c(N3CCNC(C)C3)c(F)c21 (stereo not given) [LOMEFLOXACIN] | > 20 µM | > 20 µM |
| CN1CCN(c2nc(C3=C(c4c[nH]c5ccccc45)C(=O)NC3=O)c3ccccc3n2)CC1 [SOTRASTAURIN] | > 20 µM | > 20 µM |
| C[N+](C)(C)CCOC(N)=O [CARBAMOYLCHOLINE] | > 20 µM | > 20 µM |
| CCCCCN(CCCOC)C(=O)C(CCC(=O)O)NC(=O)c1ccc(Cl)c(Cl)c1 (stereo not given) [LOXIGLUMIDE] | > 20 µM | > 20 µM |
| CCOc1ccn(-c2ccc(F)cc2)c(=O)c1C(=O)Nc1ccc(Oc2ccnc(N)c2Cl)c(F)c1 [BMS-777607] | > 20 µM | > 20 µM |
| C=CC[C@]1(O)CC[C@H]2[C@@H]3CCC4=CCCC[C@@H]4[C@H]3CC[C@@]21C [ALLYLESTRENOL] | > 20 µM | > 20 µM |
| Cc1nnc2n1-c1sc(Br)cc1C(c1ccccc1Cl)=NC2 [BROTIZOLAM] | > 20 µM | > 20 µM |
| C[C@@H](N)C(=O)N[C@@H](Cc1ccccc1)C(=O)O | > 20 µM | > 20 µM |
| COCCCOc1ccnc(C[S+]([O-])c2nc3ccccc3[nH]2)c1C (stereo not given) [RABEPRAZOLE] | > 20 µM | > 20 µM |
| CCC(=O)O[C@](Cc1ccccc1)(c1ccccc1)[C@H](C)CN(C)C [PROPOXYPHENE] | > 20 µM | > 20 µM |
| Cc1ccsc1/C=C/C1=NCCCN1C [MORANTEL] | > 20 µM | > 20 µM |
| COC(=O)N[C@H](C(=O)N1CC2(CC2)C[C@H]1c1nc(-c2ccc3c(c2)C(F)(F)c2cc(-c4ccc5[nH]c([C@@H]6[C@H]7CC[C@H](C7)N6C(=O)[C@@H](NC(=O)OC)C(C)C)nc5c4)ccc2-3)c[nH]1)C(C)C | > 20 µM | > 20 µM |
| CCc1cc(Cl)c(OC)c(C(=O)NC[C@@H]2CCCN2CC)c1O [ETICLOPRIDE] | > 20 µM | > 20 µM |
